Source: ChEMBL document CHEMBL1148802, “Discovery and synthesis of HIV integrase inhibitors: development of potent and orally bioavailable N-methyl pyrimidones” (J Med Chem, 2007)
pIC50: −log10 of the molar value. Values belong to the compound of their own block, whether it stands above or below them.

Legend:
[1] = target: Human immunodeficiency virus type 1 integrase (Human immunodeficiency virus 1, UniProt Q7ZJM1); assay: Inhibition of HIV integrase activity by HIV strand transfer assay
[2] = system: Human immunodeficiency virus 1; assay: Antiviral activity against HIV13b in MT4 cells assessed as decrease in HIV1 p24 core antigen in presence of fetal bovine serum; format: functional, 3b; conditions: for IC95: Human immunodeficiency virus 1, 3b, MT4, read-out: CIC95
[3] = system: Human immunodeficiency virus 1; assay: Antiviral activity against HIV1 3b in MT4 cells assessed as decrease in […] p24 core antigen in presence of normal human serum; format: functional; conditions: for IC95: Human immunodeficiency virus 1, 3b, MT4, read-out: CIC95
[4] = Protein binding in Sprague-Dawley rat plasma; format: ADME, cell-free; conditions: read-out: PPB (converted)
[5] = Oral bioavailability in Sprague-Dawley rat; format: ADME, organism-based; conditions: in vivo
[6] = Plasma clearance in Sprague-Dawley rat; format: ADME, organism-based
[7] = Plasma half life in iv dosed Sprague-Dawley rat; format: ADME, organism-based
[8] = AUC in Sprague-Dawley rat at 2.3 mg/kg, po; format: ADME, organism-based; parameters: dose 2.3 mg/kg, route oral; conditions: plasma
Homo sapiens = organism: Homo sapiens; assay: Protein binding in human plasma; conditions: read-out: PPB (converted)
[9] = (§1) AUC in Sprague-Dawley rat at 3 mg/kg, po; format: ADME, organism-based, Plasma; parameters: dose 3 mg/kg, route oral; conditions: Sprague-Dawley, plasma
[10] = Oral bioavailability in Beagle dog; format: ADME, organism-based, Canis lupus familiaris; conditions: in vivo
[11] = Plasma clearance in Beagle dog; format: ADME, organism-based, Canis lupus familiaris
[12] = Plasma half life in iv dosed Beagle dog; format: ADME, organism-based, Canis lupus familiaris
[13] = AUC in Beagle dog at 1 mg/kg, po; format: ADME, organism-based, Canis lupus familiaris; parameters: dose 1 mg/kg, route oral; conditions: plasma
[14] = Protein binding in Beagle dog plasma; format: ADME, organism-based, Canis lupus familiaris; conditions: read-out: PPB (converted)
[15] = Distribution coefficient, log D of the compound; format: physicochemical; conditions: octanol/water
[16] = AUC in Beagle dog at 0.8 mg/kg, po; format: ADME, organism-based, Canis lupus familiaris; parameters: dose 0.8 mg/kg, route oral; conditions: plasma
[17] = AUC in Beagle dog at 1.5 mg/kg, po; format: ADME, organism-based, Canis lupus familiaris; parameters: dose 1.5 mg/kg, route oral; conditions: plasma
[18] = AUC in rhesus monkey at 1 mg/kg, po; format: ADME, organism-based, Macaca mulatta; parameters: dose 1 mg/kg, route oral; conditions: plasma
[19] = AUC in Sprague-Dawley rat at 2.4 mg/kg, po; format: ADME, organism-based; parameters: dose 2.4 mg/kg, route oral; conditions: plasma
[20] = Plasma clearance in Beagle dog at 4 mg/kg, iv and 10 mg/kg, po; format: ADME, organism-based, Canis lupus familiaris
[21] = Plasma clearance in Sprague-Dawley rat at 3mg/kg, iv and 3mg/kg, po; format: ADME, organism-based
[22] = Oral bioavailability in Sprague-Dawley rat at 3 mg/kg; format: ADME, organism-based; conditions: in vivo
[23] = Plasma half life in Sprague-Dawley rat at 3 mg/kg, iv and 3 mg/kg, po; format: ADME, organism-based
[24] = Cmax in Sprague-Dawley rat at 3 mg/kg, iv and 3 mg/kg, po; format: ADME, organism-based; conditions: in vivo
[25] = Oral bioavailability in Beagle dog at 10 mg/kg; format: ADME, organism-based, Canis lupus familiaris; conditions: in vivo
[26] = Plasma half life in Beagle dog at 4 mg/kg, iv and 10 mg/kg, po; format: ADME, organism-based, Canis lupus familiaris
[27] = AUC in Beagle dog at 10 mg/kg, po; format: ADME, organism-based, Canis lupus familiaris; parameters: dose 10 mg/kg, route oral; conditions: plasma
[28] = Cmax in Beagle dog at 4 mg/kg, iv and 10 mg/kg, po; format: ADME, organism-based, Canis lupus familiaris; conditions: in vivo
[29] = Oral bioavailability in rhesus monkey at 1 mg/kg; format: ADME, organism-based, Macaca mulatta; conditions: in vivo
[30] = Plasma half life in rhesus monkey at 1 mg/kg, po and 1 mg/kg, iv; format: ADME, organism-based, Macaca mulatta
[31] = Plasma clearance in rhesus monkey at 1 mg/kg, po and 1 mg/kg, iv; format: ADME, organism-based, Macaca mulatta
[32] = Solubility at pH 7.4; format: physicochemical; conditions: buffer
Cytochrome P450 2D6 = Cytochrome P450 2D6 (Homo sapiens, UniProt P10635); assay: Inhibition of human CYP2D6 at 100 uM; format: ADME
Cytochrome P450 3A4 = Cytochrome P450 3A4 (Homo sapiens, UniProt P08684); assay: Inhibition of human CYP3A4 at 100 uM; format: ADME
Cytochrome P450 2C19 = Cytochrome P450 2C19 (Homo sapiens, UniProt P33261); assay: Inhibition of human CYP2C19 at 100 uM; format: ADME
Cytochrome P450 1A2 = target: T1, Cytochrome P450 1A2 (Homo sapiens, UniProt P05177); assay: Inhibition of human CYP1A2 at 100 uM; format: ADME
T1 sequence (P05177 whole entry): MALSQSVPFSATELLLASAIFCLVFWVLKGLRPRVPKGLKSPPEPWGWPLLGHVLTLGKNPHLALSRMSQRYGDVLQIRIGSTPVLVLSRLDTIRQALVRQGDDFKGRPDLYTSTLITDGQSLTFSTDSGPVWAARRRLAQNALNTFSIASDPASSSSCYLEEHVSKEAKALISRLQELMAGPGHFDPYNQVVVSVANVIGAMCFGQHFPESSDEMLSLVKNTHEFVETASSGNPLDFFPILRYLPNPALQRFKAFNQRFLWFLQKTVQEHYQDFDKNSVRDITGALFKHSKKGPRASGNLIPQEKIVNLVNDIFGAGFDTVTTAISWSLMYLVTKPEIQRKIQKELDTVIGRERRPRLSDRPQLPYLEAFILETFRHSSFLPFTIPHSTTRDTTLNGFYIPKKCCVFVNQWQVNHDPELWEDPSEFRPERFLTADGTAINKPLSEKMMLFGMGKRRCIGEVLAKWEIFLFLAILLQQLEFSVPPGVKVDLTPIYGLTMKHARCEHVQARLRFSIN

Rattus norvegicus = assay: as §1; format: ADME, organism-based, Plasma; parameters: dose 3 mg/kg, route oral; conditions: in vivo
[33] = AUC in Beagle dog at 2 mg/kg, po; format: ADME, organism-based, Canis lupus familiaris; parameters: dose 2 mg/kg, route oral; conditions: plasma

Compound: CN1CCN(C)C(c2nc(C(=O)NCc3ccc(F)cc3)c(O)c(=O)n2C)C1 (centres undefined)
- pIC50 [1]: 7.00
- IC95 [2]: 250 nM
- IC95 [3]: 190 nM
- bioavailability [5]: 62%
- clearance [6]: 21 mL/min/kg
- half-life [7]: 0.7 h
- AUC [9]: 5.1 µM·h
- fraction unbound (Homo sapiens): 0.28

Compound: CN1CCOCC1c1nc(C(=O)NCc2ccc(F)cc2)c(O)c(=O)n1C (centres undefined)
- CIC95 [2]: 0.06 µM
- CIC95 [3]: 0.1 µM
- fraction unbound [4]: 0.22
- bioavailability [5]: 92%
- clearance [6]: 22 mL/min/kg
- half-life [7]: 1.6 h
- AUC [8]: 4.3 µM·h
- logD [15]: 0.59
- bioavailability [10]: 100%
- clearance [11]: 3 mL/min/kg
- half-life [12]: 10 h
- AUC [16]: 11 µM·h
- fraction unbound [14]: 0.53
- AUC [17]: 22 µM·h
- AUC [18]: 1.7 µM·h

Compound: CO[C@@H]1C[C@@H](c2nc(C(=O)NCc3ccc(F)cc3)c(O)c(=O)n2C)N(C)C1
- pIC50 [1]: 6.74
- IC95 [2]: 150 nM
- IC95 [3]: 170 nM
- fraction unbound [4]: 0.11
- bioavailability [5]: 79%
- clearance [6]: 19 mL/min/kg
- half-life [7]: 1.5 h
- AUC [9]: 5.2 µM·h
- fraction unbound (Homo sapiens): 0.25

Compound: CN1C[C@H](OCc2ccccc2)C[C@H]1c1nc(C(=O)NCc2ccc(F)cc2)c(O)c(=O)n1C
- pIC50 [1]: 6.89
- IC95 [2]: < 80 nM
- IC95 [3]: 310 nM
- fraction unbound [4]: 0.07
- bioavailability [5]: 75%
- clearance [6]: 28 mL/min/kg
- half-life [7]: 2.3 h
- logD [15]: 2.2
- AUC [19]: 2.3 µM·h
- fraction unbound (Homo sapiens): 0.05

Compound: CN1CCOCC1c1nc(C(=O)NCc2ccc(F)cc2)c(O)c(=O)n1C.Cl (single isomer, unassigned; (+))
- CIC95 [2]: 40 µM
- CIC95 [3]: 65 µM
- clearance [20]: 2.2 mL/min/kg
- Log D [15]: 0.47
- AUC [9]: 8 µM·h
- clearance [21]: 9 mL/min/kg
- AUC [18]: 2.2 µM·h
- bioavailability [22]: 56%
- half-life [23]: 1.1 h
- Cmax [24]: 5.6 µM
- bioavailability [25]: 69%
- half-life [26]: 7.2 h
- AUC [27]: 136 µM·h
- Cmax [28]: 35 µM
- bioavailability [29]: 73%
- half-life [30]: 2 h
- clearance [31]: 14 mL/min/kg
- solubility [32]: 5800 µg/mL
- Activity (Cytochrome P450 2D6): Not Active
- Activity (Cytochrome P450 3A4): Not Active
- Activity (Cytochrome P450 2C19): Not Active
- Activity (Cytochrome P450 1A2): Not Active

Compound: CN1CCOCC1c1nc(C(=O)NCc2ccc(F)cc2)c(O)c(=O)n1C.Cl (single isomer, unassigned; (-))
- CIC95 [2]: 90 µM
- CIC95 [3]: 190 µM
- bioavailability [5]: 84%
- clearance [6]: 18 mL/min/kg
- half-life [7]: 1 h
- AUC (Rattus norvegicus): 6 µM·h
- bioavailability [10]: 87%
- clearance [11]: 2.6 mL/min/kg
- half-life [12]: 1.9 h
- AUC [33]: 29 µM·h

More lines, in order of rising pIC50 [1], values ahead:

- pIC50 [1]: 7.00
- fraction unbound [4]: 0.22
- bioavailability [5]: 2%
- clearance [6]: 21 mL/min/kg
- half-life [7]: 1.8 h
- AUC [8]: 0.1 µM·h
- fraction unbound (Homo sapiens): 0.28
Compound: CN1C[C@H](O)C[C@H]1c1nc(C(=O)NCc2ccc(F)cc2)c(O)c(=O)n1C
- IC95 [2]: 630 nM
- IC95 [3]: 630 nM

- pIC50 [1]: 7.15
- bioavailability [5]: 76%
- clearance [6]: 10 mL/min/kg
- half-life [7]: 0.5 h
- AUC [9]: 9.7 µM·h
- fraction unbound (Homo sapiens): 0.17
Compound: CN1CCSCC1c1nc(C(=O)NCc2ccc(F)cc2)c(O)c(=O)n1C (centres undefined)
- IC95 [2]: 50 nM
- IC95 [3]: 130 nM

- pIC50 [1]: 7.49
- bioavailability [5]: 17%
- clearance [6]: 42 mL/min/kg
- half-life [7]: 0.9 h
- logD [15]: 0.09
- AUC [9]: 0.8 µM·h
- fraction unbound (Homo sapiens): 0.3
Compound: CC(=O)N1CCN(C)C(c2nc(C(=O)NCc3ccc(F)cc3)c(O)c(=O)n2C)C1 (centres undefined)
- IC95 [2]: 230 nM
- IC95 [3]: 300 nM

- pIC50 [1]: 7.52
- fraction unbound [4]: 0.06
- bioavailability [5]: 93%
- clearance [6]: 11 mL/min/kg
- half-life [7]: 0.6 h
- AUC [9]: 11.8 µM·h
- bioavailability [10]: 100%
- clearance [11]: 5 mL/min/kg
- half-life [12]: 6 h
- AUC [13]: 9.9 µM·h
- fraction unbound [14]: 0.15
- fraction unbound (Homo sapiens): 0.12
Compound: CN1CC(F)(F)C[C@H]1c1nc(C(=O)NCc2ccc(F)cc2)c(O)c(=O)n1C
- IC95 [2]: 30 nM
- IC95 [3]: 170 nM

- pIC50 [1]: 7.70
- fraction unbound [4]: 0.08
- bioavailability [5]: 94%
- clearance [6]: 21 mL/min/kg
- half-life [7]: 1.7 h
- AUC [9]: 4.5 µM·h
Compound: CN1C[C@@H](F)C[C@H]1c1nc(C(=O)NCc2ccc(F)cc2)c(O)c(=O)n1C
- IC95 [2]: 60 nM
- IC95 [3]: 130 nM

- pIC50 [1]: 7.70
- fraction unbound [4]: 0.03
- bioavailability [5]: 100%
- clearance [6]: 12 mL/min/kg
- half-life [7]: 2 h
- logD [15]: 0.66
- AUC [9]: 12.5 µM·h
Compound: CN1C[C@H](F)C[C@H]1c1nc(C(=O)NCc2ccc(F)cc2)c(O)c(=O)n1C
- IC95 [2]: 130 nM
- IC95 [3]: 250 nM

- pIC50 [1]: 7.96
- bioavailability [5]: 38%
- clearance [6]: 78 mL/min/kg
- half-life [7]: 0.8 h
- AUC [9]: 0.6 µM·h
- fraction unbound (Homo sapiens): 0.31
Compound: CN1CCN(S(C)(=O)=O)CC1c1nc(C(=O)NCc2ccc(F)cc2)c(O)c(=O)n1C (centres undefined)
- IC95 [2]: 130 nM
- IC95 [3]: 130 nM
